Numbers after ± are expanded uncertainties.
Conditions: 298.15 K; 101.33 kPa; Liquid; Vibrating tube method

For CN(C)c1ccccc1 [N,N-dimethylaniline], which mass density is on record?
The mass density was 952.05 ± 0.23 kg/m3.

For Nc1ccccc1 [aniline], which mass density is on record?
Its mass density is 1017.39 ± 0.09 kg/m3.

Reference: the NIST ThermoML archive (doi:10.1021/je500448j)
